In article PMC10525924, “Engineering and Purification of Microcin C7 Variants Resistant to Trypsin and Analysis of Their Biological Activity” (Antibiotics, 2023):
≈ marks a conversion by molar mass, not a printed value. Where a SMILES comes first, the peptide text is derived from it. Where no end group is shown, it is not given here.

Assays:
Yej^+rimL^− strain [1] = assay: organism not typed; type: cell-based; conditions: agar diffusion; for Diameters of the inhibition zones, Trypsin-Untreated Group, Yej^+rimL^−: 200 μL fermentation supernatant, 1 × 10^5 CFU/mL, 4 °C 1 h then 37 °C 24 h, chloramphenicol 100 μL of 0.25 μg/mL; for Diameters of the inhibition zones, Trypsin-Untreated Group, Yej^+rimL^− / Diameters of the inhibition zones, Trypsin-Treated Group, Yej^+rimL^−: dash = no zone; for bacteriostatic activity after trypsin treatment, Yej^+rimL^− / Diameters of the inhibition zones, Trypsin-Treated Group, Yej^+rimL^−: supernatant treated with trypsin 50 μg/mL, 37 °C, 3 h; for Diameters of the inhibition zones, Trypsin-Treated Group, Yej^+rimL^−: pH 6.8, 37 °C 24 h
Excerpt: To analyze the antimicrobial ability of the variants, we measured the inhibition zones of all 21 variants by the agar diffusion method. The peptide moiety of McC was recognized by a YejABEf-peptide transporter. The rimL contains an acetyltransferase domain homologous to MccE which can detoxify and provide resistance to McC [17]. The overexpression of the YejABEF gene cluster and rimL gene knockout made the strain hypersensitive to McC. Therefore, the Yej^+rimL^− strain was selected as the sensitive indicator bacterial strain.
(§1) The pH was adjusted to 6.8.
(§2) The fermentation supernatants and pure products were used to characterize the bacteriostatic effects of McC variants by the agar diffusion and microdilution methods. Yej^+rimL^− and E. coli K88 indicator bacteria were applied. The serotype of E. coli K88 was O149:K91, K88ac, a clinically isolated strain, and provided by the College of Veterinary Medicine, China Agricultural University. The indicated bacteria were diluted to 1 × 10^5 CFU/mL and added to plate medium cooled to 50 °C. Two hundred microliters of supernatants were added to each dish, and diffusion was performed at 4 °C for 1 h. After incubation at 37 °C for 24 h, the diameters of the inhibition zones were determined. One hundred microliters of 0.25 μg/mL chloramphenicol was used as a control. The MICs of the pure McC variants were determined by microdilution in a sterilized 96-well microplate. The McC variants were serially diluted 2 times in 96-well microplates with LB medium. The concentrations of the McC variants ranged from 0.125 to 100 µg/mL. Each well was inoculated with 10 μL of overnight bacterial culture at a concentration of 1.0 × 10^5 CFU/mL and incubated at 37 °C for 24 h. A microplate reader was used to automatically observe changes in absorbance at 600 nm in order to monitor bacterial growth. A positive control group (including inoculated medium) and a negative control group (with medium only) were included. The MIC was determined as the lowest concentration of McC variant that inhibited bacterial growth (preventing an increase in the absorbance reading). All tests were performed in triplicate.

[2] = HPLC retention time according to hydrophobicity; type: physicochemical; conditions: chromatographic, C18 5 μm 9.4 × 250 mm; A 0.1% trichloroacetic acid, B 0.1% trichloroacetic acid with 90% acetonitrile; linear 5% B to 50% B; 1 mL/min; 35 °C; 280 nm; varies according to hydrophobicity
Procedure: To find the separation peaks of the variants, wildtype McC and blank control fermentation broth samples were tested by HPLC. The separation peaks with obvious differences (those with retention times of 11 min and 17 min) were purified and the antimicrobial activity was determined. […] Therefore, the molecular weight was further analyzed by mass spectrometry, and the separation peak at approximately 17 min was confirmed to be that of the desired purified McC. Since the mutations in this study involved only one amino acid and had few effects on the properties of the peptides, we predicted that the separation peaks of the variants should fluctuate around approximately 17 min according to their hydrophobicity. […] The purity of the purified variants was determined by HPLC to be greater than 80% (Table 3).
The lyophilized supernatants were dissolved in deionized water, filtered through 0.22 μm aqueous-phase filter membranes, and purified by high-performance liquid chromatography (HPLC, Agilent Technologies Inc., Palo Alto, CA, USA) with C18 column (5 μm 9.4 × 250 mm, Agilent Technologies Inc., Palo Alto, CA, USA). The mobile phase was composed of 0.1% (v/v) trichloroacetic acid (solvent A) and 0.1% (v/v) trichloroacetic acid with 90% (v/v) acetonitrile (solvent B). A linear gradient from 95% A/5% B to 50% A/50% B was used with a flow rate of 1 mL/min, a sample volume of 10 μL, a column temperature of 35 °C, and a detection wavelength of 280 nm. Electrospray ionization mass spectrometry (ESI-MS) was used to compare the McC variant masses with the expected masses. The relationships between the relative abundances and the mass-to-charge ratios (m/z) of the ions were determined to confirm the identities of the experimentally produced McC variants.

[3] = Remaining amount by RP-HPLC after pepsin treatment; type: in vitro ADME; conditions: isolated enzyme pepsin; pepsin treated for 3 h; read-out RP-HPLC; Table S2
Procedure: (§3) To test whether the variants were tolerant to trypsin or other digestive enzymes, the amount of the remaining McC and its analogues remaining was determined by RP-HPLC after trypsin, pepsin, and chymotrypsin treated for 3 h (Table S2), and the inhibition zones of trypsin-treated variants were tested using the same method (Table 2).

[4] = Remaining amount by RP-HPLC after chymotrypsin treatment; type: in vitro ADME; conditions: isolated enzyme chymotrypsin; chymotrypsin treated for 3 h; read-out RP-HPLC; Table S2
Procedure: as §3

Yej^+rimL^− strain [5] = type: cell-based; conditions: HPLC-purified variants; microdilution in LB, 96-well; 0.125 to 100 µg/mL; 1.0 × 10^5 CFU/mL; 37 °C 24 h; absorbance 600 nm; triplicate
Procedure: To accurately characterize the bacteriostatic abilities of the variants, the MICs of the pure McC variants toward the McCsensitive strain Yej^+rimL^− were determined. The MICs of all variants were lower than that of wild-type McC. From smallest to largest MIC, the above five variants were in the following order: R2A, R2T, R2Q, R2S, and R2H. […] Although the diameter of the inhibitory zone of R2M was smaller than those of the above five variants, the bacteriostatic ability of R2M was second only to R2T/R2Q, and the MIC was 50 μg/mL.
as §2

E. coli K88 = assay: microbe, parasite or virus in culture; type: cell-based; conditions: agar diffusion; for Diameters of the inhibition zones, Trypsin-Untreated Group, K88: 200 μL fermentation supernatant, 1 × 10^5 CFU/mL, 4 °C 1 h then 37 °C 24 h, chloramphenicol 100 μL of 0.25 μg/mL; for Diameters of the inhibition zones, Trypsin-Untreated Group, K88 / Diameters of the inhibition zones, Trypsin-Treated Group, K88: dash = no zone; for antimicrobial activity after trypsin treatment, K88 / Diameters of the inhibition zones, Trypsin-Treated Group, K88: supernatant treated with trypsin 50 μg/mL, 37 °C, 3 h; for Diameters of the inhibition zones, Trypsin-Treated Group, K88: pH 6.8, 37 °C 24 h
Procedure: as §1, §2

indicator bacteria = conditions: second to seventh codons of mccA replaced; cited from earlier work
Excerpt: The heptapeptide precursor of McC, f-MRTGNAN, is encoded by the first gene in the mcc gene clusters, mccA [11]. Considering its protein nature, it is suitable for gene-based peptide engineering. Kazakov et al. first applied site-directed mutagenesis on the mccA gene, systematically replacing the second to seventh codons of mccA encoding 19 standard amino acids for a total of 114 mutations.

Molecule	Diameters of the inhibition zones, Trypsin-Untreated Group, Yej^+rimL^− (Yej^+rimL^− strain [1]) [mm]	Retention Time [2] [min]	remaining at 3 h [3] [%]	remaining at 3 h [4] [%]	MIC (Yej^+rimL^− strain [5]) [µg/mL]	Diameters of the inhibition zones, Trypsin-Untreated Group, K88 (E. coli K88) [mm]	bacteriostatic activity after trypsin treatment, Yej^+rimL^− (Yej^+rimL^− strain [1])	Diameters of the inhibition zones, Trypsin-Treated Group, Yej^+rimL^− (Yej^+rimL^− strain [1]) [mm]	antimicrobial activity after trypsin treatment, K88 (E. coli K88)	Diameters of the inhibition zones, Trypsin-Treated Group, K88 (E. coli K88) [mm]	antimicrobial activity of mccA substitution variants (indicator bacteria)
CSCC[C@H](NC=O)C(=O)N[C@@H](CCCNC(=N)N)C(=O)N[C@H](C(=O)NCC(=O)N[C@@H](CC(N)=O)C(=O)N[C@@H](C)C(=O)N[C@@H](CC(=O)O)C(=O)NP(=O)(OCCCN)OC[C@H]1O[C@@H](n2cnc3c(N)ncnc32)[C@H](O)[C@@H]1O)[C@@H](C)O (stereo partly shown) [McC, Microcin C7] (HELM PEPTIDE1{[O=C[*:2]].M.R.T.G.N.A.[NCCCOP(=O)(NC(=O)[C@H](CC(=O)O)N[*:1])OC[C@H]1O[C@@H](n2cnc3c(N)ncnc32)[C@H](O)[C@@H]1O]}$$$$V2.0)	29.12	17.198	89.3 ± 1.16	41.7 ± 1.07	1.56 (≈ 1.33 µM)	20.25	–	–	–	–	–
CC[C@H](C)[C@H](NC(=O)[C@H](CCSC)NC=O)C(=O)N[C@H](C(=O)NCC(=O)N[C@@H](CC(N)=O)C(=O)N[C@@H](C)C(=O)N[C@@H](CC(=O)O)C(=O)NP(=O)(OCCCN)OC[C@H]1O[C@@H](n2cnc3c(N)ncnc32)[C@H](O)[C@@H]1O)[C@@H](C)O (stereo partly shown) [R2I] (HELM PEPTIDE1{[O=C[*:2]].M.I.T.G.N.A.[NCCCOP(=O)(NC(=O)[C@H](CC(=O)O)N[*:1])OC[C@H]1O[C@@H](n2cnc3c(N)ncnc32)[C@H](O)[C@@H]1O]}$$$$V2.0)	18.36	18.166	91.72 ± 0.87	41.3 ± 0.55	100 (≈ 88.2 µM)	10.18	exhibited antibacterial effects	15.67	–	–	–
CSCC[C@H](NC=O)C(=O)N[C@@H](CCC(N)=O)C(=O)N[C@H](C(=O)NCC(=O)N[C@@H](CC(N)=O)C(=O)N[C@@H](C)C(=O)N[C@@H](CC(=O)O)C(=O)NP(=O)(OCCCN)OC[C@H]1O[C@@H](n2cnc3c(N)ncnc32)[C@H](O)[C@@H]1O)[C@@H](C)O (stereo partly shown) [R2Q] (HELM PEPTIDE1{[O=C[*:2]].M.Q.T.G.N.A.[NCCCOP(=O)(NC(=O)[C@H](CC(=O)O)N[*:1])OC[C@H]1O[C@@H](n2cnc3c(N)ncnc32)[C@H](O)[C@@H]1O]}$$$$V2.0)	19.45	16.910	87.6 ± 1.23	49.6 ± 1.19	25 (≈ 21.8 µM)	21.67	exhibited antibacterial effects	19.38	retained their antimicrobial activity	14.56	–
CSCC[C@H](NC=O)C(=O)N[C@H](C(=O)N[C@H](C(=O)NCC(=O)N[C@@H](CC(N)=O)C(=O)N[C@@H](C)C(=O)N[C@@H](CC(=O)O)C(=O)NP(=O)(OCCCN)OC[C@H]1O[C@@H](n2cnc3c(N)ncnc32)[C@H](O)[C@@H]1O)[C@@H](C)O)[C@@H](C)O (stereo partly shown) [R2T] (HELM PEPTIDE1{[O=C[*:2]].M.T.T.G.N.A.[NCCCOP(=O)(NC(=O)[C@H](CC(=O)O)N[*:1])OC[C@H]1O[C@@H](n2cnc3c(N)ncnc32)[C@H](O)[C@@H]1O]}$$$$V2.0)	21.74	17.418	86.76 ± 0.77	46.7 ± 0.66	25 (≈ 22.3 µM)	15.27	exhibited antibacterial effects	17.23	retained their antimicrobial activity	11.68	–
CSCC[C@H](NC=O)C(=O)N[C@@H](Cc1ccc(O)cc1)C(=O)N[C@H](C(=O)NCC(=O)N[C@@H](CC(N)=O)C(=O)N[C@@H](C)C(=O)N[C@@H](CC(=O)O)C(=O)NP(=O)(OCCCN)OC[C@H]1O[C@@H](n2cnc3c(N)ncnc32)[C@H](O)[C@@H]1O)[C@@H](C)O (stereo partly shown) [R2Y] (HELM PEPTIDE1{[O=C[*:2]].M.Y.T.G.N.A.[NCCCOP(=O)(NC(=O)[C@H](CC(=O)O)N[*:1])OC[C@H]1O[C@@H](n2cnc3c(N)ncnc32)[C@H](O)[C@@H]1O]}$$$$V2.0)	18.87	18.591	85.22 ± 0.72	45.4 ± 1.18	>100	–	exhibited antibacterial effects	14.93	–	–	–
A6F: McC substitution variant of Kazakov et al., site-directed mutagenesis of mccA (MRTGNFN; ends and bridges not checked; UniProt Q47505 1-7, looked up, variant A6F) [reference compound]	–	–	–	–	–	–	–	–	–	–	loss of antimicrobial activity
A6M: McC substitution variant of Kazakov et al., site-directed mutagenesis of mccA (MRTGNMN; ends and bridges not checked; UniProt Q47505 1-7, looked up, variant A6M) [reference compound]	–	–	–	–	–	–	–	–	–	–	loss of antimicrobial activity
